Results from US4826815A, “Renin inhibiting compounds” (Abbott Laboratories, priority 1987, dated 1989).

molecular target: T1, human renal renin (Homo sapiens, UniProt P00797); assay: In vitro inhibition of human renal renin; angiotensin I formed measured by radioimmunoassay; type: biochemical; settings: @ 10^-5; human renin substrate (angiotensinogen), 37° C., pH 6.0
T1 construct: human renal renin, free from acid proteolytic activity; from tissue
T1 sequence (P00797 67-406): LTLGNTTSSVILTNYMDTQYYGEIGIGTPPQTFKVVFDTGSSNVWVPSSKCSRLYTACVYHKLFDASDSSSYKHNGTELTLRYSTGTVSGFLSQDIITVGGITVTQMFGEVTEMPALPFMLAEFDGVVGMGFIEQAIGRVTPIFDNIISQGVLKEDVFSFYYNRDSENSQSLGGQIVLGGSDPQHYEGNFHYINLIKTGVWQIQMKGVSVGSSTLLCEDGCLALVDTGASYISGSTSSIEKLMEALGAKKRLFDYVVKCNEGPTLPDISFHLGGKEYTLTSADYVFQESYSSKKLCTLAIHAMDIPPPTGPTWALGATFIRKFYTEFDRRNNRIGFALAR
Description: At the end of the incubation, the amount of angiotensin I formed is measured by radioimmunoassay and the percent inhibition or renin is calculated.

Going from `CC(C)CC(NC(=O)C(C)NC(=O)C(Cc1ccccc1)NC(=O)OC(C)(C)C)C(O)CSc1ccccc1` (stereo not drawn) [Example 25, Boc-Phe-Ala amide of 3-amino-2-hydroxy-5-methyl-1 phenylmercaptohexane] to `CC(C)CC(NC(=O)C(C)NC(=O)C(Cc1ccccc1)NC(=O)OC(C)(C)C)C(O)CSCc1ccccc1` (stereo not drawn) [Example 28, Boc-Phe-Ala amide of 3 amino 1-benzylmercapto-2 hydroxy-5-methylhexane], the Inhibition rises from 56% to 57%.

Compared with `CC(C)CC(NC(=O)C(C)NC(=O)C(Cc1ccccc1)NC(=O)OC(C)(C)C)C(O)CSC1CCCCC1` (stereo not drawn) [Example 29, Boc-Phe-Ala amide of 3-amino-1-cyclohexyl mercapto-2-hydroxy-5-methylhexane], `CC(C)CC(NC(=O)C(C)NC(=O)C(Cc1ccccc1)NC(=O)OC(C)(C)C)C(O)C[S+]([O-])C1CCCCC1` (stereo not drawn) [Example 55, Boc-Phe Ala amide of 3-amino-1-cyclohexyl sulfinyl-2-hydroxy-5-methylhexane] is lower in Inhibition: 94% for the first, 46% for the second.

In the case of `CC(C)CC(NC(=O)C(C)NC(=O)C(Cc1ccccc1)NC(=O)OC(C)(C)C)C(O)CNc1ccccc1` (stereo not drawn) [Example 31, Boc-Phe-Ala amide of 3-amino-2-hydroxy-5-methyl-1-phenylaminohexane], the Inhibition is reported as 31%.

same assay, conditions: @ 10^-6; human renin substrate (angiotensinogen), 37° C., pH 6.0

Compared with `CC(C)CC(NC(=O)C(Cc1cnc[nH]1)NC(=O)C(Cc1ccccc1)NC(=O)OC(C)(C)C)C(O)CSc1ccccc1` (stereo not drawn) [Example 23, Boc-Phe-His amide of 3-amino-2 hydroxy-5-methyl 1-phenylmercaptohexane], `CC(C)CC(=O)NCC(O)C(CC(C)C)NC(=O)C(Cc1cnc[nH]1)NC(=O)C(Cc1ccccc1)NC(=O)OC(C)(C)C` (stereo not drawn) [Example 79, Boc-Phe-His Amide of 3-Amino-2- hydroxy-1-(isovalerylamino)-5-methylhexane] is higher in Inhibition: 56% for the first, 63% for the second.

same assay, conditions: @ 10^-7; human renin substrate (angiotensinogen), 37° C., pH 6.0

Going from `CC(C)(C)OC(=O)NC(Cc1ccccc1)C(=O)NC(Cc1cnc[nH]1)C(=O)NC(Cc1ccccc1)C(O)CSC1CCCCC1` (stereo not drawn) [Example 50, Boc-Phe-His amide of 3-amino-1-cyclohexylmercapto-2-hydroxy-4-phenylbutane] to `O=C(NC(Cc1cnc[nH]1)C(=O)NC(CC1CCCCC1)C(O)CSC1CCCCC1)C(Cc1ccccc1)Cc1ccccc1` (stereo not drawn) [Example 81, Dba-His Amide of 3-amino-4-cyclohexyl-1-cyclohexylmercapto-2-hydroxybutane], the Inhibition falls from 89% to 71%.

same assay, conditions: @ 10^-8; human renin substrate (angiotensinogen), 37° C., pH 6.0

Going from `CC(C)SCC(O)C(CC1CCCCC1)NC(=O)C(Cc1cnc[nH]1)NC(=O)C(Cc1ccccc1)NC(=O)OC(C)(C)C` (stereo not drawn) [Example 51, Boc-Phe-His amide of 3 amino-4-cyclohexyl-2-hydroxy-1-isopropylmercaptobutane] to `CC(C)(C)OC(=O)NC(Cc1ccccc1)C(=O)NC(Cc1cnc[nH]1)C(=O)NC(CC1CCCCC1)C(O)CS(=O)(=O)C1CCCCC1` (stereo not drawn) [Example 54, Boc-Phe-His amide of 3 amino-4-cyclohexyl-1-cyclohexylsulfonyl-2-hydroxybutane], the Inhibition rises from 80% to 81%.

In the case of `CC(C)(C)CC(=O)NC(Cc1ccccc1)C(=O)NC(Cc1c[nH]cn1)C(=O)NC(CC1CCCCC1)C(O)CSC1CCCCC1` (stereo not drawn) [Example 82, Tba-Phe-His-Amide of 3-amino-4-cyclohexyl-1-cyclohexylmercapto-2-hydroxybutane], the Inhibition is reported as 82%.
